According to patent publication US9987321B2, “Use of flaxseed and flaxseed derivatives for treatment of neurological disorders and viral diseases” (The Trustees of the University of Pennsylvania, priority 2012, dated 2018):

Columns and labels:
[1] = Reducing power antioxidant assay; settings: compared to SDG
Description: The antioxidant activity SDG was determined by assessing its reducing power, an activity related to its ability to reduce an oxidized atom or molecule and compared with that of the natural antioxidants ascorbic acid and alpha-tocopherol (Panel A).

CCR5 = assay: Western blot of CCR5 expression on MDM; assay type: cell-based; settings: SDG for 0 and 6 hours, time-dependent
Description: (§1) The objective of this study was to elucidate the modulatory effects of flaxseed lignans on macrophage expression of coreceptors through western blotting.
Expression of HIV co-receptor CCR5 on macrophage derived monocytes treated with SDG was evaluated. Following the same treatment protocol, MDM were treated with SDG for 0 and 6 hours.

cortical rat neurons = assay: Neurotoxicity and oxidative stress (MAP2, DHE) from HIV-infected macrophage supernatants; assay type: cell-based
Description: Neurons (green) were pre-treated with 50 μM SDG 1 hour prior to exposure to HIV-infected macrophage supernatants (HIVMDM) at dilutions of 1:40 and 1:80. In the absence of SDG, there is marked reduction in MAP2 immunostaining (green) indicating neuronal damage and death (A). Labeling with dihydroethidium (red) indicates the presence of oxidative stress, which is apparent in HIVMDM treated cultures. Nuclei are labeled blue by DAPI. […] MAP2 levels are quantified in top graph (# p<0.01 compared to UT, * p<0.05 compared to respective HIV MDM). Oxidative stress (red-DHE) is quantified in bottom graph (# p<0.001, compared to HIVMDM1:40, p<0.05, compared to HIVMDM1:80, $ p<0.01 compared with UT.
Primary rat neuroglial cultures (FIG. 10, Panel A) and primary rat neuronal cultures (FIG. 10, Panel B) were treated with Supernatants from HIV-Infected macrophages (Jago) or Mock-infected macrophages (Mock) for 24 hours in the presence or absence of 25 or 50 μM SDG given 60 minutes prior to addition of the HIVMDM. Prior to fixation, cells were incubated with Dihydroethidium (DHE-red) for 30 minutes. Following fixation cells were stained for the neuronal specific marker MAP2 (green) and DAPI (blue). Representative images for each treatment are shown. DHE Fluorescence intensity was quantified from 6 fields for 3 slides per treatment, averaged, and normalized to the area of DAPI. Graphs of the average DHE staining intensity/DAPI area are plotted for each treatment group. The p values were generated using student's two-tailed t-test for equal variance. Bars on graphs represent median values of quantification by ImageJ algorithm. *P<0.05 vs Untreated (UT)-control group and Mock-control group; #P<0.05 vs Jago 1:40 treatment group. The results were obtained from at least three independent experiments.

[2] = test system: nrf2-regulated protective enzymes; assay: qRT-PCR of antioxidant enzyme gene expression in brain tissues after oral SDG; assay type: in vivo, mice
Description: Indeed, the 1.0 mg dose was associated with a near 2-fold boost of hemeoxygenase 1 expression (HO-1) and quinone oxidoreductase 1 (NQO-1) expression in brain tissues (FIG. 14, Panel B).

rat neuronal cultures = assay: MTT viability, indirect treatment (media from SDG-treated macrophages); assay type: cell-based; settings: media from HIV-1 or Mock infected macrophages treated with SDG, 24 hours
Description: We performed a MTT (3-(4,5-dimethylthiazol-2-yl)-2,5-diphenyltetrazolium bromide) assay to measure the viability of cells through the production of insoluble formazan. […]. In these indirect studies media from HIV-1 infected or Mock infected macrophages treated with SDG was applied to neuronal cultures for 24 hours. Afterward cell viability was determined by the MTT assay which […] and is an indicator of mitochondrial activity. […] This study is a clear indicator of the non-neurotoxic effects of SDG in vitro.

HIV-1 jago [3] = assay: HIV replication in monocyte-derived macrophages (RT activity, p24); assay type: cell-based; settings: for viral replication as indicated by RT activity / viral replication as indicated by p24 concentrations: primary human MDMs, 9 days post-infection, ritonavir 0.1 μM, SDG 50 μM
Description: Primary human MDMs were infected with an HIV isolated from the CSF of a patient with confirmed HAND yielding robust reverse transcriptase activity (A) and p24 concentrations (B) after 9 days post-infection. […] Results have been confirmed in 2 distinct donors, 1 donor is shown. Three technical replicates are analyzed for RT assays (n=3, * p<0.0001).
(§2) PBMCs can be prepared from laboratory donors. PBMCs are activated with […] phytohemagglutinin for 3 days, and infected with HIV-1 jago, a strain of HIV1 isolated from the CSF of a patient with HAD. On the day of infection, cultures is treated with SDG over a range of doses (0.1, 1, 10, 100 μM SDG), vehicle, or left untreated. Viral replication is assessed by p24 ELISA at 3, 6, 9, 12 and 15 days post-infection. Cell viability of infected PBMCs can be monitored by trypan blue exclusion and p24 levels are normalized to the number of viable cells. The experiment is repeated in 3 donors. MDMs can be prepared as described previously and infected with HIV-1 jago. On the day of inoculation with HIV-1 jago cultures can be treated with 0.1, 1, 10 and 100 μM SDG, vehicle or left untreated. Viral replication is assessed on days 3, 6, 9, 12, and 15 by p24 ELISA. Cell viability is determined by trypan blue exclusion and p24 levels is normalized to the number of viable cells. The experiment is replicated in 3 donors.
To assess this effect, primary peripheral blood monocytes were harvested from healthy donors and differentiated them into macrophages in vitro. Monocytes were infected with the primary HIV isolate, jago. One day after infection, macrophages were treated with 25 μM or 50 μM SDG, the antiretroviral compound ritonavir (0.1 μM RIT), SDG and ritonavir together, the ritonavir vehicle, DMSO, or with no additional treatment. Supernatant from these macrophages was harvested 3, 6, 9, 12, and 15 days post infection and assayed for HIV reverse transcriptase activity (FIG. 5A, bar graph and FIG. 5B, Line graph).

[4] = DPPH free radical scavenging activity; settings: compared to ascorbic acid and alpha-tocopherol
[5] = SDG by oral gavage; cited from earlier work
Nrf2 = assay: Endogenous antioxidant response expression by qRT-PCR and immunoblot; assay type: cell-based; settings: primary rat cortical neurons, SDG 50 μM, 2 or 48 hours
Description: Specifically, protein and RNA from primary rat cortical neurons treated with SDG at 50 μM or left untreated for 2 or 48 hours were analyzed for changes in expression of the endogenous antioxidant response by qRT-PCR and immunoblot.
Protein and RNA from primary rat cortical neurons treated with SDG at 50 μM or left untreated for 2 or 48 hours were analyzed for changes in expression of the endogenous antioxidant response by qRT-PCR and immunoblot.

[6] = test system: rat cortical neuroglial cultures; assay: MTT viability, direct SDG treatment; assay type: cell-based; settings: 24 hours with SDG
Description: In order to assess the effects on SDG in terms of mitochondrial respiration as an indicator of viability, an MTT assay was performed with rat cortical neuroglial cultures that were treated for 24 hours with SDG.

[7] = at least 500 mg SDG/day for approximately 8 weeks; cited from earlier work
[8] = test system: primary rat cortical neurons; assay: MAP2 cell-based ELISA of neuronal death and damage after ART compounds
Description: (§3) Relative neuronal damage as indicated by MAP2 cell-based ELISA in neurons treated with the indicated concentrations of ART compounds, ritonavir (RIT), Saquinavir (Sag), and Zidovudine (AZT). Cells were treated for 72 hours with ritonavir (10 μM or 25 μM), ritonavir (10 μM)+Saquinivir (1 μM), AZT (25 μM)+ritonavir+Saquinavir. One hour before and two hours after cART drug treatment, half of the wells of a 96 well plate of neuroglial cultures were also treated with secoisolariciresinol diglucoside (SDG) (25 μM, 50 μM, or 100 μM) where indicated. 72 hours later, a MAP2 cell-based ELISA assay was used to quantify neuronal death and damage. Untreated cultures in addition to vehicle (0.08% DMSO) treated cultures with and without SDG were used as controls. The value for untreated cultures was set to 100%, and SDG and cART treated bands are expressed as a percent change from untreated.
as §3, with “Cells” for “Relative neuronal damage as indicated by MAP2 cell-based ELISA in neurons treated with the indicated concentrations of ART compounds, ritonavir (RIT), Saquinavir (Sag), and Zidovudine (AZT). Cells”, “SDG” for “secoisolariciresinol diglucoside (SDG)”, “μM).” for “μM) where indicated.”

CXCR4 = assay: Western blot of CXCR4 expression on MDM; assay type: cell-based
Description: as §1
Expression of HIV coreceptor CXCR4 on macrophage derived monocytes treated with SDG was evaluated. Following the same treatment protocol, MDM were treated with SDG for 0 and 6 hours. […] 25 μM to the 25 μM SDG treatment.

[9] = test system: brain derived neurotrophic factor (BDNF); settings: SDG by oral gavage; cited from earlier work
HIV-1 jago [10] = assay: HIV replication in PBMCs (p24 ELISA); assay type: cell-based; settings: dose dependent manner; 0.1, 1, 10, 100 μM SDG
Description: as §2

Nrf2/ARE = Nrf2/ARE activation in non-neuronal cell types; assay type: cell-based; settings: lung epithelial, endothelial and fibroblasts
[11] = 50 μM SDG 1 hour prior to HIVMDM 1:40 and 1:80
[12] = 1.0 mg SDG oral gavage once daily for 4 days, 4 hours post final feeding

SMILES: Cc1c(C)c2c(c(C)c1O)CC[C@@](C)(CCC[C@H](C)CCC[C@H](C)CCCC(C)C)O2 [A-toc, alpha-tocopherol]
- concentration needed for half-maximal response (EC50) in reducing power, relative to SDG [1]: ~3 fold

SMILES: O=C1O[C@H]([C@@H](O)CO)C(O)=C1O [AA, ascorbic acid]
- concentration needed for half-maximal response (EC50) in reducing power, relative to SDG [1]: ~3 fold

SMILES: COc1cc(C[C@@H](CO[C@@H]2O[C@H](CO)[C@@H](O)[C@H](O)[C@H]2O)[C@H](CO[C@@H]2O[C@H](CO)[C@@H](O)[C@H](O)[C@H]2O)Cc2ccc(O)c(OC)c2)ccc1O [SDG, secoisolariciresinol diglucoside]
- HIV co-receptor CCR5 expression on MDM (CCR5): significant decrease
- neuron loss (MAP2 immunostaining) (cortical rat neurons; [11]): protected against neuron loss
- oxidative stress by DHE (cortical rat neurons; [11]): reduced accumulation of oxidative stress
- protection from HIV-stimulated macrophage-induced neurotoxicity (cortical rat neurons; 25 or 50 μM SDG 60 minutes prior to HIVMDM, 24 hours, presence or absence of glia): protects neurons
- DHE staining (free radical production) in HIV-Jago-treated neurons (cortical rat neurons; presence and absence of glia): reduced DHE staining
- hemeoxygenase 1 (HO-1) expression in brain tissues [2, 12]: ~2 fold
- quinone oxidoreductase 1 (NQO-1) expression in brain tissues [2, 12]: ~2 fold
- crossing of the blood-brain barrier ([2]; SDG given orally to mice): crosses the blood-brain barrier
- neuronal cell viability (MTT), indirect treatment (rat neuronal cultures): no change in neuronal cell viability
- effect of SDG on ritonavir inhibition of HIV replication (reverse transcriptase activity) (HIV-1 jago [3]; 25 or 50 μM SDG with 0.1 μM ritonavir, 3-15 days post infection): did not block the ability of ritonavir to inhibit HIV replication
- HIV replication (reverse transcriptase activity), SDG without ritonavir (HIV-1 jago [3]; 25 or 50 μM SDG, 3-15 days post infection): blocked HIV replication
- viral replication in HIV-infected macrophages compared with ritonavir (HIV-1 jago [3]; FIG. 2): reduced viral replication to levels akin to the HIV protease inhibitor, ritonavir
- HIV replication in MDMs (HIV-1 jago [3]; dose dependent manner, 0.1, 1, 10, 100 μM SDG): attenuates HIV replication
- viral replication as indicated by RT activity (HIV-1 jago [3]): attenuated viral replication
- viral replication as indicated by p24 concentrations (HIV-1 jago [3]): attenuated viral replication
- DPPH free radical scavenging activity [4]: far superior antioxidant activity
- chronic stress as measured by immobility time induced by tail suspension stress [5]: decreased chronic stress
- induction of Nrf2 and its targets HO1, NQO1, GST1 (Nrf2): induced Nrf2 in neurons, as well as its prominent targets: HO1, NQO1, and GST1
- neuronal cell viability (MTT), direct treatment [6]: no change in neuronal cell viability
- effect on cardiovascular risk factors in humans [7]: positive effect
- attenuation of neuronal damage in response to ART compounds ([8]; 25 μM SDG 1 hour prior to ART compounds alone or in combination): significantly attenuated neuronal damage
- reduction of ART-induced neuronal damage by combination therapy ([8]; SDG at 25 and 50 μM): reduced ART-induced neuronal damage
- HIV coreceptor CXCR4 expression on MDM, dose dependence (CXCR4; 12 hour time point, 6. 25 μM to 25 μM SDG): dose-dependent decrease
- HIV coreceptor CXCR4 expression on MDM (CXCR4; between the 0 and 6 hour time points, time-dependent): significant decrease
- cortex levels of brain derived neurotrophic factor (BDNF) [9]: increase
- HIV replication in PBMCs (HIV-1 jago [10]): attenuates HIV replication
- activation of Nrf2/ARE, inducing NQO1 and HO1 (Nrf2/ARE): activates the Nrf2/ARE

SMILES: CC(C)c1nc(CN(C)C(=O)N[C@H](C(=O)N[C@@H](Cc2ccccc2)C[C@H](O)[C@H](Cc2ccccc2)NC(=O)OCc2cncs2)C(C)C)cs1 [ritonavir, reference compound]
- viral replication as indicated by RT activity (HIV-1 jago [3]): attenuated viral replication
- viral replication as indicated by p24 concentrations (HIV-1 jago [3]): attenuated viral replication

SMILES: CC(C)(C)NC(=O)[C@@H]1C[C@@H]2CCCC[C@@H]2CN1C[C@@H](O)[C@H](Cc1ccccc1)NC(=O)[C@H](CC(N)=O)NC(=O)c1ccc2ccccc2n1 [saquinavir, reference compound]
- neuronal damage as indicated by loss of MAP2 staining ([8]; ART compounds alone and in combinations, 72 hours): significant neuronal damage
